Experimental data published in the SangsterLogP compilation.

Experiment: method code SF-AS, from DOI: 10.1021/jm00344a020, PMID: 7057427

Structure (SMILES) | logP
O=C(COc1cccc2ccccc12)NN1CC=CCC1 | 1.96
O=C(NN1CC=CCC1)c1ccco1 | 0.81
O=C(NN1CC=CCC1)C12CC3CC(CC(C3)C1)C2 | 1.45
O=C(NN1CC=CCC1)c1cccc[n+]1[O-] | -0.32
O=C(Cc1cccnc1)NN1CC=CCC1 | 0.05
O=C(NN1CC=CCC1)c1cccc(C(=O)NN2CC=CCC2)n1 | -0.52
O=C(NN1CC=CCC1)c1cccs1 | 1.88
O=C(Cc1ccc2c(c1)OCO2)NN1CC=CCC1 | 0.68
O=C(COc1ccccc1)NN1CC=CCC1 | -0.06
CC(C)(C)C(=O)NN1CC=CCC1 | 1.03

Experiment: method code SF, from DOI: 10.1021/jm00344a020, PMID: 7057427

Structure (SMILES) | logP
O=C(NC1CCCC1)N1CC=CCC1 | 1.92
O=C(NN1CC=CCC1)C1CC1 | 1.12
O=C(NN1CC=CCC1)C1CCCCCC1 | 1.5
O=C(NN1CC=CCC1)C1CCCCC1 | 0.45
CCOC(=O)NN1CC=CCC1 | 1.09
CC(=O)NN1CC=CCC1 | 0.52
